{
  "source": "patent US20090081212A1",
  "about": "“USE AND TARGETING OF CD98 LIGHT-CHAIN PROTEINS IN THERAPIES FOR THYROID HORMONE DISORDERS” (The Government of the U.S.A., as Represented by the …, priority 2000, published 2009)",
  "key": {"[1]": {"test_system": "4F2hc-IU12 heterodimers", "test": "Thyroid hormone and amino acid transport by 4F2hc-IU12 heterodimers expressed in Xenopus oocytes (radiotracer uptake and its inhibition)", "assay_type": "cell-based, Xenopus laevis", "conditions": "for inhibition of 4F2hc-IU12 induced [3H]tryptophan uptake, in words: 1 μM tryptophan tracer, inhibitors 10 μM T4, 5 mM BCH, increasing unlabelled T3 or tryptophan; for uptake of [3H]phenylalanine and [3H]tryptophan: 50 μM amino acid, preliminary experiments; for uptake of [3H]phenylalanine and [3H]tryptophan / Vmax of 4F2hc-IU12 induced transport / Km: 4F2hc-IU12 injected oocytes; for Vmax of 4F2hc-IU12 induced transport / Km: 4 days post-injection, TH 0.05-10 μM, 60 min uptake; for Km: read-out: apparent Km of 4F2hc-IU12 induced transport; for inhibition of 4F2hc-IU12 induced 0.1 μM TH (T3) uptake, in words: inhibitors 10 μM T3/T4, 5 mM BCH, 10 mM tryptophan, data shown for T3 only", "description": "Xenopus laevis toads were purchased from the South African Xenopus Facility. Chemicals were obtained from Sigma (UK) with the exception of Collagenase A (Boehringer, UK) and Ultraspec water (Ambion, UK). Radiotracers were purchased from NEN (UK). cDNAs encoding IU12 (2.3 Kb EcoRI/ApaI fragment from pBluescriptSK-IU12) (Liang et al. 1997, Cell Res 7: 179-193) and human 4F2hc (1.85 Kb Ecor1/BamH1 fragment from pSP65-4F2) (Teixeira et al. 1987, J Biol Chem 262: 9574-9580) were subcloned into the multiple-cloning region of pSG5 (an SV-40 driven expression plasmid).\n(§1) Oocytes were isolated by collagenase treatment (Peter et al. 1996, Biochem J 318: 915-922) of ovarian tissue obtained from mature female Xenopus laevis toads (South African Xenopus Facility). Defolliculated, stage V-V1 (prophase-arrested) oocytes were selected and maintained at 18° C. in Modified Barth's Medium (MBM) containing (in mM): 88 NaCl, 1 KCL, 2.4 NaHCO3, 0.82 MgSO4.7H2O, 0.66 NaNO3, 0.75 CaCl2x2H2O, 5.0 HEPES, pH 7.6 with Tris base, 10 mg/liter gentamycin sulphate. For DNA injection, oocytes were transferred into individual wells of Tetraski plates pre-filled with MBM and centrifuged at 500 g for 10 minutes at 18° C., which causes migration of the nucleus to the cell surface and facilitates nuclear injection (Mertz & Gurdon 1977, PNAS 395: 288-291). The visible nucleus of each oocyte was injected with 2 ng DNA in 15 nl Ultraspec water using a pneumatic delivery system (Peter et al. 1996, Biochem J 318: 915-922). For co-injection studies, 2 ng of both DNAs (i.e. 4F2hc/IU12) were injected. Nuclei of control oocytes were injected with Ultraspec water. Oocytes were incubated in MBM at 18° C. for 4 days to allow expression of injected DNA before experimentation.\n(§2) All experiments were carried out at 22° C. using Na^+-free transport buffer (unless otherwise stated) containing 100 mM tetramethylammonium chloride (TMACl), 2 mM KCl; 1 mM CaCl2; 1 mM MgCl2; 10 mM HEPES, pH 7.5 with Tris). Radiolabelled amino acid uptake (3H-phenylalanine or ^3H-tryptophan over 30 min) was also measured (Peter et al. 1996, Biochem J 318: 915-922). BCH (5 mM) was used as a specific inhibitor of amino acid transport System L.\nData are expressed as mean values±standard error of the mean (S.E.M; n=number of observations). Experimental measurements in each batch of oocytes were made on 7-11 individual oocytes. Differences between mean values were assessed using Students unpaired t-test, with significance assigned at p<0.05."}, "[2]": {"test_system": "T3-dependent transcriptional activation of a luciferase reporter in BeWo cells", "test": "T3-induced luciferase reporter activity in BeWo cells", "assay_type": "cell-based, human", "conditions": "24 h exposure", "experimental": "FIG. 7. […] Infected cells were exposed to experimental conditions for 24 h prior to assay of luciferase activity."}, "[3]": {"test_system": "water-injected oocytes", "test": "Basal radiotracer uptake in control (water-injected) Xenopus oocytes", "assay_type": "cell-based, Xenopus laevis", "conditions": "for uptake of [3H]phenylalanine and [3H]tryptophan: 50 μM amino acid, water-injected cells", "experimental": "as §1, §2"}, "[4]": {"test_system": "BeWo placental choriocarcinoma cells", "test": "Nuclear uptake of [125I]T3 in BeWo cells", "assay_type": "cell-based, human"}, "[5]": {"target": "human 4F2 heavy-chain (4F2hc) glycoprotein (human) (UniProt P08195)"}, "[6]": {"test_system": "T3-dependent activation of luciferase activity", "test": "Thyroid-responsive luciferase reporter (TRE) in oocytes expressing 4F2hc-IU12", "assay_type": "cell-based, Xenopus laevis", "conditions": "5 mM BCH, 10 nM T3, 24 h; preliminary data from one batch of oocytes", "experimental": "FIG. 6. […] Ratio of luminescent counts for each oocyte type compared to thyroid-responsive luciferase (TRE)-only injected oocytes. Data shown for n=4 batches (each 7-9 oocytes). […] 4/I/R/T—4F2hc/IU12/RXRα/TRβ co-injected oocytes. RXRα/TRβ (heterodimers of RXR, or 9-cis retinoic acid receptor, and TR)— nuclear receptors for TH; *, significant change in luciferase activity compared to TRE-only injected oocytes (p<0.05). […] All incubations were performed over a 24-hour time period.\nOverexpression of the 4F2hc-IU12 heterodimer in oocytes produced a functional activation of System L transporter activity."}},
  "data": [
    {"molecule": "NC(Cc1ccc(Oc2cc(I)c(O)c(I)c2)c(I)c1)C(=O)O", "note": "(stereo not shown) [rT3, reverse tri-iodothyronine]", "values": [
      {"measurement": "inhibition of induced 0.1 μM T3 uptake", "setting": "[1]; inhibitor 10 μM, n=3 preparations", "result": "41±4", "unit": "%"}
    ]},
    {"molecule": "N[C@@H](Cc1c[nH]c2ccccc12)C(=O)O", "note": "[tryptophan]", "values": [
      {"measurement": "effect on T3-dependent transcriptional activation of a luciferase reporter", "setting": "[2]", "result": "inhibit"},
      {"measurement": "control tryptophan uptake (absence of inhibitor)", "setting": "[3]; 1 μM tryptophan, water-injected oocytes", "result": "2.1±0.1", "unit": "pmol/oocyte.h"},
      {"measurement": "uptake of [3H]phenylalanine and [3H]tryptophan", "setting": "[3]", "result": 10, "unit": "pmol/oocyte.h"},
      {"measurement": "effect on nuclear uptake of [125I]T3", "setting": "[4]", "result": "inhibit"},
      {"measurement": "inhibition of 4F2hc-IU12 induced [3H]tryptophan uptake, in words", "setting": "[1]", "result": "concentration-dependent inhibition"},
      {"measurement": "control tryptophan uptake (absence of inhibitor)", "setting": "[1]; 1 μM tryptophan, 4F2hc-IU12-injected oocytes", "result": "10.2±0.4", "unit": "pmol/oocyte.h"},
      {"measurement": "uptake of [3H]phenylalanine and [3H]tryptophan", "setting": "[1]", "result": 120, "unit": "pmol/oocyte.h"},
      {"measurement": "Vmax of 4F2hc-IU12 induced transport", "setting": "[1]", "result": "180±54", "unit": "pmol/oocyte.h"},
      {"measurement": "Km", "setting": "[1]", "result": 70, "unit": "µM"},
      {"measurement": "inhibition of 4F2hc-IU12 induced 0.1 μM TH (T3) uptake, in words", "setting": "[1]", "result": "significantly inhibited"}
    ]},
    {"molecule": "Xenopus laevis IU12 light-chain (lc) permease", "values": [
      {"measurement": "uptake of [3H]phenylalanine and [3H]tryptophan into Xenopus oocytes (pmol/oocyte.h)", "setting": "[5]", "result": 120},
      {"measurement": "uptake of [125I]T3 and [125I]T4 (0.1 µM) into Xenopus oocytes (times over control (T3))", "setting": "[5]", "result": 2.7}
    ]},
    {"molecule": "N[C@@H](Cc1ccccc1)C(=O)O", "note": "[phenylalanine]", "values": [
      {"measurement": "uptake of [3H]phenylalanine and [3H]tryptophan", "setting": "[3]", "result": 10, "unit": "pmol/oocyte.h"},
      {"measurement": "uptake of [3H]phenylalanine and [3H]tryptophan", "setting": "[1]", "result": 120, "unit": "pmol/oocyte.h"}
    ]},
    {"molecule": "NC1(C(=O)O)CC2CCC1C2", "note": "(stereo not shown) [BCH, 2-endoamino-bicycloheptane-2-carboxylic acid]", "values": [
      {"measurement": "effect on T3-dependent transcriptional activation of a luciferase reporter", "setting": "[2]", "result": "inhibit"},
      {"measurement": "effect on nuclear uptake of [125I]T3", "setting": "[4]", "result": "inhibit"},
      {"measurement": "effect on T3-dependent activation of luciferase activity in oocytes expressing 4F2hc-IU12", "setting": "[6]", "result": "blocked"},
      {"measurement": "inhibition of 4F2hc-IU12 induced [3H]tryptophan uptake, in words", "setting": "[1]", "result": "inhibited"},
      {"measurement": "inhibition of 4F2hc-IU12 induced 0.1 μM TH (T3) uptake, in words", "setting": "[1]", "result": "significantly inhibited"}
    ]},
    {"molecule": "O=C(O)Cc1cc(I)c(Oc2ccc(O)c(I)c2)c(I)c1", "note": "[TRIAC, triodothyroacetic acid]", "values": [
      {"measurement": "inhibition of T3 uptake, in words", "setting": "[3]; water-injected oocytes", "result": "did not inhibit"},
      {"measurement": "inhibition of tryptophan uptake, in words", "setting": "[3]; water-injected oocytes", "result": "did not inhibit"}
    ]},
    {"molecule": "N[C@@H](Cc1cc(I)c(Oc2cc(I)c(O)c(I)c2)c(I)c1)C(=O)O", "note": "[T4, thyroxine]", "values": [
      {"measurement": "average increase in uptake over control (water- or IU12-injected oocytes)", "setting": "[1]; 0.1 μM TH, n=5 batches of oocytes", "result": "2.1±0.5", "unit": "times"},
      {"measurement": "inhibition of 4F2hc-IU12 induced [3H]tryptophan uptake, in words", "setting": "[1]", "result": "has not achieved statistical significance"},
      {"measurement": "Vmax of 4F2hc-IU12 induced transport", "setting": "[1]", "result": "2.0±0.6", "unit": "pmol/oocyte.h"},
      {"measurement": "Km", "setting": "[1]", "result": 6.3, "unit": "µM"},
      {"measurement": "inhibition of 4F2hc-IU12 induced 0.1 μM TH (T3) uptake, in words", "setting": "[1]", "result": "mutual cross-inhibition"}
    ]},
    {"molecule": "N[C@@H](Cc1cc(I)c(Oc2ccc(O)c(I)c2)c(I)c1)C(=O)O", "note": "[T3, tri-iodothyronine]", "values": [
      {"measurement": "control T3 uptake (absence of inhibitor)", "setting": "[3]; 0.1 μM T3, water-injected oocytes", "result": "22±3", "unit": "fmol/oocyte.h"}
    ]}
  ]
}
